One assay deals with Xenopus egg extracts. Nature of the assay: Entry into mitosis in Xenopus CSF egg extracts. It is filed as biochemical. The conditions noted are these: 10 or 40 μM, added 15 min after Ca2+. How it is done:
Xenopus CSF extracts were prepared from unfertilized eggs, as previously described (Murray, 1991) and used immediately. To examine the effect of Pin1 on mitotic entry, a fresh CSF extract containing demembranated sperm (150/μl) and rhodamine tubulin (2 μg/ml) was activated by addition of 0.4 mM calcium chloride for 15 min, before the indicated concentrations of various Pin1 proteins were added and mitotic entry was followed for 2 h by nuclear morphology, nuclear envelope breakdown, spindle formation and Cdc2 activity, as described previously (Murray, A. W., Methods Cell Biol 36:581-605 (1991)). The cell cycle state of nuclei within the extracts were over 90% synchronous and typical nuclei were photographed.
To examine whether increasing the concentration of Pin1 has similar biological effects in Xenopus, Pin1 or Pin1 mutants were injected into one cell of 2 cell stage embryos and allowed the embryos to develop for 3 h (about 5 divisions). […] A similar concentration (4 μM final) of either Pin1 mutant had little effect on the cell cycle. […] In contrast, higher concentrations of the mutant proteins were needed to block the cell cycle (FIG. 1). […] In contrast, the same extracts containing 40 μM of either BSA or the mutant Pin1 proteins entered mitosis by 70 to 80 min as detected by nuclear envelope breakdown, spindle formation and high histone H1 kinase activity. […]

Another assay addresses T1, mitotic GST-Cdc25 (Xenopus laevis, UniProt P30309).
T1 construct: made in house
T1 sequence (P30309 1-550): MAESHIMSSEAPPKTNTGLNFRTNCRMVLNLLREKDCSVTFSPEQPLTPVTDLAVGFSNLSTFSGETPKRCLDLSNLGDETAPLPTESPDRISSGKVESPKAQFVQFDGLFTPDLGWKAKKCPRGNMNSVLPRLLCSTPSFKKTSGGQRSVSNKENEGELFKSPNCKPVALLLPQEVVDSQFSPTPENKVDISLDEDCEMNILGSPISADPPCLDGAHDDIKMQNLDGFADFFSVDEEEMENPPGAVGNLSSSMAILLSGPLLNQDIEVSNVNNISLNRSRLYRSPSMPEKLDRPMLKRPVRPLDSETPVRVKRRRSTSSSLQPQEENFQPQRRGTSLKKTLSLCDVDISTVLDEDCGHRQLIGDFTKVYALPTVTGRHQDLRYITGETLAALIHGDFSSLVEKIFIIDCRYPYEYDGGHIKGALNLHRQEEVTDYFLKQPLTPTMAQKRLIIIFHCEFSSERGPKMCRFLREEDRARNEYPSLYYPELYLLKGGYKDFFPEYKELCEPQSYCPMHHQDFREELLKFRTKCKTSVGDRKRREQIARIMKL
Nature of the assay: Cdc25 activity assay (activation of cyclin B/Cdc2, H1 kinase). It is filed as biochemical. The settings on record: 0.67 μM protein, 1 μM mitotic Cdc25. The protocol: Cdc2 was assayed using histone H1 as a substrate, as previously described in Murray, 1991; Lu and Hunter, (1995).
A subthreshold concentration of GST cyclin B (10 μg) was added to 1 ml of Xenopus interphase extract for thirty min at room temperature (Solomon, M. J., M. Glotzer, T. H. Lee, M. Philippe and M. W. Kirschner, Cell 63:1013-1024 (1990). This was diluted 8 fold in XB+3 mM DTT, rotated for 1 h with 3 ml of GST agarose beads, washed 3 times in XBIP (XB+500 mM NaCl and 1% NP40+2 mM DTT), washed 2 times (once overnight) in EB (80 mM β glycerol phosphate, 15 mM EGTA, 15 mM MgCl2)+2 mM DTT, 500 mM NaCl and 1% NP40, and finally twice with EB+10 mM DTT. These Cdc25 assay beads were stored at 4° C. for up to 1 month. Mitotic GST-Cdc25 was purified by incubating 22 μg of GST-Cdc25, in a Xenopus mitotic extract for 30 min at 23° C., this was diluted 8 fold in XB and rotated with 50 μl of glutathione-Agarose beads (Sigma) for 1 hr at 4° C. The beads were washed 5 times in XB-IP, twice in XB+2 mM DTT and eluted in 25 μl XB+2 mM reduced GSH. The final concentration of Mitotic GST-Cdc25 was 0.36 mg/ml. […] Phosphoimager analysis of the H1 kinase assays were quantified by the Molecular Dynamics ImageQuant 3.3 software. […] The most reproducible way to quantify the Cdc25 activity in this assay was by determining the endpoint dilution of Cdc25 which could activate Cdc2. […]

For the substance “Pin1: essential mitotic peptidyl-prolyl cis-trans isomerase, recombinant protein”, the entry into mitosis result with Xenopus egg extracts is “completely blocked entry into mitosis”. Moreover, the “effect on Cdc25 activity” value in the assay with mitotic GST-Cdc25 is “mitotic Cdc25 failed to activate the Cdc2 complex”.

(Values after patent US6462173B1, “Inhibitors of phosphoserine and phosphothreonine-proline-specific isomerases” (Max-Planck-Gesellschaft zur Forderung der, priority 1997, dated 2002).)
